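Protocol summary: plate cells (96-well), add compound at 5 concentrations, incubate 48 h, interpolate endpoints linearly. GI50 = concentration required for 50% inhibition of growth.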 Active and inactive are the calls of the source. Rule as the data show it: active = GI50 up to about 1.1 µM and inactive = higher.
How the values were obtained:
Assay in all cases: growth of human tumour cells (NCI), 48 h
[1] = test system: HOP-92
[2] = test system: SW-620
[3] = test system: A549
[4] = test system: CAKI-1
[5] = test system: HT-29
[6] = test system: SF-295
[7] = test system: SNB-19
[8] = test system: UACC-62
[9] = test system: COLO 205
[10] = test system: CCRF-CEM
[11] = test system: A498
[12] = test system: Malme-3M
[13] = test system: LOX IMVI
[14] = test system: OVCAR-4
[15] = test system: SF-539
[16] = test system: EKVX
[17] = test system: SNB-75

| Structure (SMILES) | GI50 [1] | GI50 [2] | GI50 [3] | GI50 [4] | GI50 [5] | GI50 [6] | GI50 [7] | GI50 [8] | GI50 [9] | GI50 [10] | GI50 [11] | GI50 [12] | GI50 [13] | GI50 [14] | GI50 [15] | GI50 [16] | GI50 [17] |
| --- | --- | --- | --- | --- | --- | --- | --- | --- | --- | --- | --- | --- | --- | --- | --- | --- | --- |
| CCN(CC)CCCCC1CCN(CC(=O)N2CC(C)C(=O)Nc3ccccc32)CC1 (configuration not stated) | > 100 µM (inactive) | > 100 µM (inactive) | > 100 µM (inactive) | > 100 µM (inactive) | > 100 µM (inactive) | > 100 µM (inactive) | > 100 µM (inactive) | > 100 µM (inactive) | > 100 µM (inactive) | > 100 µM (inactive) | > 100 µM (inactive) | > 100 µM (inactive) | > 100 µM (inactive) | > 100 µM (inactive) | – | – | – |
| CCN(CC)CCOc1ccc(C(=C2CCCCC2)c2ccc(OCCN(CC)CC)cc2)cc1 | 2.02 µM (inactive) | 1.25 µM (inactive) | 1.62 µM (inactive) | 1.96 µM (inactive) | 1.1 µM (active) | 1.85 µM (inactive) | 1.73 µM (inactive) | – | 1.34 µM (inactive) | 0.931 µM (active) | 1.78 µM (inactive) | 1.72 µM (inactive) | 1.23 µM (inactive) | 2.31 µM (inactive) | 1.55 µM (inactive) | 1.74 µM (inactive) | 1.45 µM (inactive) |
| O=C1c2cccc3cc([N+](=O)[O-])cc(c23)C(=O)N1NC1=NCCN1 | > 100 µM (inactive) | > 100 µM (inactive) | > 100 µM (inactive) | > 100 µM (inactive) | > 100 µM (inactive) | > 100 µM (inactive) | > 100 µM (inactive) | > 100 µM (inactive) | > 100 µM (inactive) | > 100 µM (inactive) | > 100 µM (inactive) | > 100 µM (inactive) | > 100 µM (inactive) | > 100 µM (inactive) | > 100 µM (inactive) | > 100 µM (inactive) | > 100 µM (inactive) |
| c1ccc([B-]23Oc4ccccc4[NH+]2c2ccccc2O3)cc1 (configuration not stated) | > 100 µM (inactive) | 33.2 µM (inactive) | > 100 µM (inactive) | > 100 µM (inactive) | > 100 µM (inactive) | > 100 µM (inactive) | > 100 µM (inactive) | > 100 µM (inactive) | 49 µM (inactive) | 29.6 µM (inactive) | > 100 µM (inactive) | > 100 µM (inactive) | 62.2 µM (inactive) | > 100 µM (inactive) | > 100 µM (inactive) | > 100 µM (inactive) | > 100 µM (inactive) |
| CC1(C)C(c2ccccc2)C12CCC1(C2=O)C(c2ccccc2)C1(C)C (configuration not stated) | 11.7 µM (inactive) | 21.7 µM (inactive) | 26.4 µM (inactive) | 23.1 µM (inactive) | 16.1 µM (inactive) | 19.4 µM (inactive) | 28.8 µM (inactive) | 32 µM (inactive) | 18.8 µM (inactive) | 18.9 µM (inactive) | 34.6 µM (inactive) | 26.7 µM (inactive) | 20.2 µM (inactive) | 31.3 µM (inactive) | 26.8 µM (inactive) | 25.1 µM (inactive) | 30.4 µM (inactive) |
| Nc1nc2ncn(CCO)c2c(=S)[nH]1 | > 100 µM (inactive) | > 100 µM (inactive) | > 100 µM (inactive) | > 100 µM (inactive) | > 100 µM (inactive) | > 100 µM (inactive) | > 100 µM (inactive) | > 100 µM (inactive) | > 100 µM (inactive) | > 100 µM (inactive) | > 100 µM (inactive) | > 100 µM (inactive) | > 100 µM (inactive) | > 100 µM (inactive) | > 100 µM (inactive) | > 100 µM (inactive) | > 100 µM (inactive) |
| O=[N+]([O-])c1ccccc1[S+]([O-])c1ccccc1 (configuration not stated) | 71 µM (inactive) | > 100 µM (inactive) | 52.8 µM (inactive) | 60.4 µM (inactive) | 62.7 µM (inactive) | 90.8 µM (inactive) | 87.3 µM (inactive) | > 100 µM (inactive) | – | 47.8 µM (inactive) | 63.2 µM (inactive) | > 100 µM (inactive) | 21.1 µM (inactive) | 49.2 µM (inactive) | 70.6 µM (inactive) | – | 22.1 µM (inactive) |
| CN(C)c1ccc(Cc2cc(C(C)(C)C)cc(C(C)(C)C)c2O)cc1 | – | 16.9 µM (inactive) | 19.8 µM (inactive) | 19.1 µM (inactive) | 16.1 µM (inactive) | 18.9 µM (inactive) | 21.6 µM (inactive) | 14.7 µM (inactive) | – | 60.1 µM (inactive) | 18.2 µM (inactive) | 22.5 µM (inactive) | 10.6 µM (inactive) | 21.3 µM (inactive) | 20.8 µM (inactive) | 22.1 µM (inactive) | 31.2 µM (inactive) |
| Cc1ccc(C2=C(c3ccccc3)C(O)(c3ccccc3)C(c3ccccc3)=C2c2ccc(C)cc2)cc1 | – | > 100 µM (inactive) | > 100 µM (inactive) | – | 46.2 µM (inactive) | 35.6 µM (inactive) | > 100 µM (inactive) | – | – | > 10 µM (inactive) | > 100 µM (inactive) | > 100 µM (inactive) | – | – | > 100 µM (inactive) | 64 µM (inactive) | > 100 µM (inactive) |
| CC1(C)CC(N(C(=O)/C=C/c2ccc([N+](=O)[O-])o2)C2CCCCC2)CC(C)(C)N1 | 3.65 µM (inactive) | 2.55 µM (inactive) | 15 µM (inactive) | 5.52 µM (inactive) | 4.49 µM (inactive) | 13.5 µM (inactive) | 13.1 µM (inactive) | 10 µM (inactive) | – | 3.25 µM (inactive) | 16.2 µM (inactive) | – | 12 µM (inactive) | 10.4 µM (inactive) | 9.86 µM (inactive) | 13.9 µM (inactive) | 10.5 µM (inactive) |
| O=C1c2ccc3c4ccccc4n(-c4ccccc4)c3c2C(=O)N1c1ccc(Cl)cc1 | 37.3 µM (inactive) | > 100 µM (inactive) | > 100 µM (inactive) | > 100 µM (inactive) | 29 µM (inactive) | > 100 µM (inactive) | > 100 µM (inactive) | > 100 µM (inactive) | > 100 µM (inactive) | > 100 µM (inactive) | > 100 µM (inactive) | > 100 µM (inactive) | > 100 µM (inactive) | > 100 µM (inactive) | > 100 µM (inactive) | > 100 µM (inactive) | > 100 µM (inactive) |
| O=[N+]([O-])c1c(/C=N/c2ccccc2)oc(-c2ccc3c(c2)OCO3)c1-c1ccc2c(c1)OCO2 | 65.6 µM (inactive) | > 100 µM (inactive) | > 100 µM (inactive) | > 100 µM (inactive) | > 100 µM (inactive) | > 100 µM (inactive) | > 100 µM (inactive) | > 100 µM (inactive) | > 100 µM (inactive) | – | – | > 100 µM (inactive) | > 100 µM (inactive) | > 100 µM (inactive) | > 100 µM (inactive) | – | 50.2 µM (inactive) |
| CC(C)CC(=O)N1CCN(C(=O)CC(C)C)c2ccccc21 | > 100 µM (inactive) | > 100 µM (inactive) | > 100 µM (inactive) | – | > 100 µM (inactive) | > 100 µM (inactive) | > 100 µM (inactive) | – | > 100 µM (inactive) | > 100 µM (inactive) | > 100 µM (inactive) | > 100 µM (inactive) | > 100 µM (inactive) | – | > 100 µM (inactive) | > 100 µM (inactive) | > 100 µM (inactive) |
| CN1CC(=O)N(C)c2[nH]cnc2C1=O | – | > 100 µM (inactive) | > 100 µM (inactive) | – | > 100 µM (inactive) | > 100 µM (inactive) | > 100 µM (inactive) | > 100 µM (inactive) | > 100 µM (inactive) | > 100 µM (inactive) | > 100 µM (inactive) | > 100 µM (inactive) | > 100 µM (inactive) | > 100 µM (inactive) | > 100 µM (inactive) | > 100 µM (inactive) | > 100 µM (inactive) |
| CCc1cccc(C)c1NC(=O)NS(=O)(=O)c1ccc(C)cc1 | > 100 µM (inactive) | > 100 µM (inactive) | > 100 µM (inactive) | > 100 µM (inactive) | – | > 100 µM (inactive) | > 100 µM (inactive) | > 100 µM (inactive) | > 100 µM (inactive) | > 100 µM (inactive) | > 100 µM (inactive) | > 100 µM (inactive) | > 100 µM (inactive) | > 100 µM (inactive) | > 100 µM (inactive) | > 100 µM (inactive) | 35.2 µM (inactive) |
| Cc1cc(Cl)ccc1NC(=O)CC1SC(N)=NC1=O (configuration not stated) | – | > 100 µM (inactive) | > 100 µM (inactive) | > 100 µM (inactive) | > 100 µM (inactive) | > 100 µM (inactive) | > 100 µM (inactive) | > 100 µM (inactive) | > 100 µM (inactive) | 66.4 µM (inactive) | 17.7 µM (inactive) | > 100 µM (inactive) | > 100 µM (inactive) | > 100 µM (inactive) | > 100 µM (inactive) | > 100 µM (inactive) | > 100 µM (inactive) |
| N=C(NC(=S)N1CCCCC1)N1CCCCC1 | > 100 µM (inactive) | > 100 µM (inactive) | > 100 µM (inactive) | > 100 µM (inactive) | > 100 µM (inactive) | > 100 µM (inactive) | > 100 µM (inactive) | > 100 µM (inactive) | – | > 100 µM (inactive) | > 100 µM (inactive) | > 100 µM (inactive) | > 100 µM (inactive) | > 100 µM (inactive) | > 100 µM (inactive) | > 100 µM (inactive) | > 100 µM (inactive) |

— ChEMBL document CHEMBL1201862, “PubChem BioAssay data set” (2004)
